According to ChEMBL document CHEMBL4400561, “Isolation, structural elucidation, and insights into the anti-inflammatory effects of triterpene saponins from the leaves of Stauntonia hexaphylla” (Bioorg Med Chem Lett, 2019):

Experiments:
RAW264.7 [1] = test: Cytotoxicity against mouse RAW264.7 cells at anti-inflammatory IC50 after 19 hrs by MTT assay; type: cell-based; details: raw264.7, 19 h
RAW264.7 [2] = test: Anti-inflammatory activity in mouse LPS-stimulated RAW264.7 cells assessed as decrease in IL6 levels preincubated for 1 hr followed by LPS-stimulation and measured after 12 hrs by ELISA; type: functional, cell-based
RAW264.7 [3] = test: Anti-inflammatory activity in mouse LPS-stimulated RAW264.7 cells assessed as decrease in COX2 protein levels preincubated for 1 hr followed by LPS-stimulation and measured after 16 hrs by Western blot analysis; type: functional, cell-based
RAW264.7 [4] = test: Anti-inflammatory activity in mouse LPS-stimulated RAW264.7 cells assessed as decrease in TNFalpha levels preincubated for 1 hr followed by LPS-stimulation and measured after 12 hrs by ELISA; type: functional, cell-based
RAW264.7 [5] = test: Anti-inflammatory activity in mouse LPS-stimulated RAW264.7 cells assessed as decrease in IL1beta levels preincubated for 1 hr followed by LPS-stimulation and measured after 12 hrs by ELISA; type: functional, cell-based
RAW264.7 [6] = test: Anti-inflammatory activity in mouse LPS-stimulated RAW264.7 cells assessed as decrease in PGE2 levels at preincubated for 1 hr followed by LPS-stimulation and measured after 12 hrs by ELISA; type: functional, cell-based
RAW264.7 [7] = test: Anti-inflammatory activity in mouse LPS-stimulated RAW264.7 cells assessed as decrease in iNOS protein levels preincubated for 1 hr followed by LPS-stimulation and measured after 16 hrs by Western blot analysis; type: functional, cell-based
RAW264.7 [8] = test: Anti-inflammatory activity in mouse RAW264.7 cells assessed as inhibition of LPS-induced NO production preincubated for 1 hr followed by LPS-stimulation and measured after 18 hrs by Griess reagent-based assay; type: functional, cell-based

| SMILES | IC50 (RAW264.7 [8]) [µM] | Activity (RAW264.7 [1]) | inhibition (RAW264.7 [2]) | inhibition (RAW264.7 [3]) | inhibition (RAW264.7 [4]) | inhibition (RAW264.7 [5]) | inhibition (RAW264.7 [6]) | inhibition (RAW264.7 [7]) |
| --- | --- | --- | --- | --- | --- | --- | --- | --- |
| C=C1CC[C@]2(C(=O)O[C@@H]3O[C@H](CO[C@@H]4O[C@H](CO)[C@@H](O)[C@H](O)[C@H]4O)[C@@H](O)[C@H](O)[C@H]3O)CC[C@]3(C)C(=CC[C@@H]4[C@@]5(C)CC[C@H](O)[C@@](C)(CO)[C@@H]5CC[C@]43C)[C@@H]2C1 | > 50 | Non-Toxic | – | – | – | – | – | – |
| CC1(C)CC[C@]2(C(=O)O)CC[C@]3(C)C(=CC[C@@H]4[C@@]5(C)CC[C@H](O)[C@@](C)(CO[C@@H]6O[C@H](CO[C@@H]7O[C@H](CO)[C@@H](O)[C@H](O)[C@H]7O)[C@@H](O)[C@H](O)[C@H]6O)[C@@H]5CC[C@]43C)[C@@H]2C1 | > 50 | Non-Toxic | – | – | – | – | – | – |
| CC1(C)CC[C@]2(C(=O)O[C@@H]3O[C@H](CO[C@@H]4O[C@H](CO)[C@@H](O)[C@H](O)[C@H]4O)[C@@H](O)[C@H](O)[C@H]3O)CC[C@]3(C)C(=CC[C@@H]4[C@@]5(C)CC[C@H](O)C(C)(C)[C@@H]5CC[C@]43C)[C@@H]2C1 | > 50 | Non-Toxic | – | – | – | – | – | – |
| C[C@@H]1O[C@@H](O[C@H]2[C@H](O)[C@@H](O)[C@H](OC[C@H]3O[C@@H](OC(=O)[C@]45CCC(C)(C)C[C@H]4C4=CC[C@@H]6[C@@]7(C)CC[C@H](O)[C@@](C)(CO)[C@@H]7CC[C@@]6(C)[C@]4(C)CC5)[C@H](O)[C@@H](O)[C@@H]3O)O[C@@H]2CO)[C@H](O)[C@H](O)[C@H]1O [KIZUTA CIRENSENOSIDE O SAPONIN K3] | > 50 | Non-Toxic | – | – | – | – | – | – |
| C=C1CC[C@]2(C(=O)O[C@@H]3O[C@H](CO[C@@H]4O[C@H](CO)[C@@H](O[C@@H]5O[C@@H](C)[C@H](O)[C@@H](O)[C@H]5O)[C@H](O)[C@H]4O)[C@@H](O)[C@H](O)[C@H]3O)CC[C@]3(C)C(=CC[C@@H]4[C@@]5(C)CC[C@H](O[C@@H]6OC[C@H](O)[C@H](O)[C@H]6O)[C@@](C)(CO)[C@@H]5CC[C@]43C)[C@@H]2C1 | > 50 | Non-Toxic | – | – | – | – | – | – |
| C[C@@H]1O[C@@H](O[C@H]2[C@H](O[C@H]3CC[C@@]4(C)[C@@H](CC[C@]5(C)[C@@H]4CC=C4[C@@H]6CC(C)(C)CC[C@]6(C(=O)O[C@@H]6O[C@H](CO[C@@H]7O[C@H](CO)[C@@H](O[C@@H]8O[C@@H](C)[C@H](O)[C@@H](O)[C@H]8O)[C@H](O)[C@H]7O)[C@@H](O)[C@H](O)[C@H]6O)CC[C@]45C)[C@]3(C)CO)OC[C@H](O)[C@@H]2O)[C@H](O)[C@H](O)[C@H]1O [KALOPANAXSAPONIN B] | > 50 | Non-Toxic | – | – | – | – | – | – |

The next lines start with results.

| IC50 (RAW264.7 [8]) [µM] | SMILES | Activity (RAW264.7 [1]) | inhibition (RAW264.7 [2]) | inhibition (RAW264.7 [3]) | inhibition (RAW264.7 [4]) | inhibition (RAW264.7 [5]) | inhibition (RAW264.7 [6]) | inhibition (RAW264.7 [7]) |
| --- | --- | --- | --- | --- | --- | --- | --- | --- |
| 0.59 | C[C@@H]1O[C@@H](O[C@H]2[C@H](O[C@H]3CC[C@]4(C)[C@H]5CC=C6[C@@H]7CC(C)(C)CC[C@]7(C(=O)O)CC[C@@]6(C)[C@]5(C)CC[C@H]4C3(C)C)OC[C@H](O[C@@H]3O[C@H](CO)[C@@H](O)[C@H](O)[C@H]3O)[C@@H]2O)[C@H](O)[C@H](O)[C@H]1O [HEDERACOLCHISIDE A1] | Non-Toxic | Dose-dependent effect | Dose-dependent effect | Dose-dependent effect | Dose-dependent effect | Dose-dependent effect | Dose-dependent effect |
| > 50 | C[C@@H]1O[C@@H](O[C@H]2[C@H](O)[C@@H](O)[C@H](OC[C@H]3O[C@@H](OC(=O)[C@]45CCC(C)(C)C[C@H]4C4=CC[C@@H]6[C@@]7(C)CC[C@H](O)C(C)(C)[C@@H]7CC[C@@]6(C)[C@]4(C)CC5)[C@H](O)[C@@H](O)[C@@H]3O)O[C@@H]2CO)[C@H](O)[C@H](O)[C@H]1O [CIRENSENOSIDE O] | Non-Toxic | – | – | – | – | – | – |
| 0.13 | C[C@@H]1C[C@H]2[C@@H]3CCC4=CC(=O)C=C[C@]4(C)[C@@]3(F)[C@@H](O)C[C@]2(C)[C@@]1(O)C(=O)CO [DEXAMETHASONE] | Non-Toxic | – | – | – | – | – | – |
| 16.6 | C=C1CC[C@]2(C(=O)O)CC[C@]3(C)C(=CC[C@@H]4[C@@]5(C)CC[C@H](O[C@@H]6OC[C@H](O)[C@H](O)[C@H]6O[C@@H]6O[C@H](CO)[C@@H](O)[C@H](O)[C@H]6O)C(C)(C)[C@@H]5CC[C@]43C)[C@@H]2C1 | Non-Toxic | – | – | – | – | – | – |
| > 50 | C[C@@H]1O[C@@H](O[C@H]2[C@H](O)[C@@H](O)[C@H](OC[C@H]3O[C@@H](OC(=O)[C@]45CCC(C)(C)C[C@H]4C4=CC[C@@H]6[C@@]7(C)CC[C@H](O[C@@H]8OC[C@H](O)[C@H](O)[C@H]8O)[C@@](C)(CO)[C@@H]7CC[C@@]6(C)[C@]4(C)CC5)[C@H](O)[C@@H](O)[C@@H]3O)O[C@@H]2CO)[C@H](O)[C@H](O)[C@H]1O [CAULOSIDE D] | Non-Toxic | – | – | – | – | – | – |
| > 50 | C[C@@H]1O[C@@H](O[C@H]2[C@H](O[C@H]3CC[C@]4(C)[C@H]5CC=C6[C@@H]7CC(C)(C)CC[C@]7(C(=O)O)CC[C@@]6(C)[C@]5(C)CC[C@H]4C3(C)C)OC[C@H](O)[C@@H]2O[C@@H]2O[C@H](CO)[C@@H](O)[C@H](O)[C@H]2O)[C@H](O)[C@H](O)[C@H]1O | Non-Toxic | – | – | – | – | – | – |
| > 50 | C=C1CC[C@]2(C(=O)O[C@@H]3O[C@H](CO[C@@H]4O[C@H](CO)[C@@H](O)[C@H](O)[C@H]4O)[C@@H](O)[C@H](O)[C@H]3O)CC[C@]3(C)C(=CC[C@@H]4[C@@]5(C)CC[C@H](O)C(C)(C)[C@@H]5CC[C@]43C)[C@@H]2C1 | Non-Toxic | – | – | – | – | – | – |
| 1.82 | CC1(C)CC[C@]2(C(=O)O)CC[C@]3(C)C(=CC[C@@H]4[C@@]5(C)CC[C@H](O[C@@H]6OC[C@H](O)[C@H](O)[C@H]6O[C@@H]6O[C@H](CO)[C@@H](O)[C@H](O)[C@H]6O)C(C)(C)[C@@H]5CC[C@]43C)[C@@H]2C1 | Non-Toxic | Dose-dependent effect | Dose-dependent effect | Dose-dependent effect | Dose-dependent effect | Dose-dependent effect | Dose-dependent effect |
